Reference: patent US12492182B2, “Hydroxytriazine compounds and pharmaceutical use thereof” (Japan Tobacco Inc., priority 2015, dated 2025)
Read-outs that look alike come from different tables or passages of the source.

Legend:
human mPGES-1 = molecular target: T1, human mPGES-1 (Homo sapiens, UniProt O14684); assay: Evaluation of human mPGES-1 enzyme inhibitory activity (HTRF measurement of PGE2); format: biochemical; settings: IC50 value; microsome fraction of CHO-S cells expressing human mPGES-1, PGH2 substrate, PGE2 by HTRF; read-out: humans mPGES-1 enzyme inhibitory activity
T1 construct: made in house; host or cells: Chinese hamster ovary-derived cells (FreeStyle CHO-S), transient transfection of pcDNA3.1(+)/human mPGES-1; microsome fraction
T1 sequence (O14684 1-152): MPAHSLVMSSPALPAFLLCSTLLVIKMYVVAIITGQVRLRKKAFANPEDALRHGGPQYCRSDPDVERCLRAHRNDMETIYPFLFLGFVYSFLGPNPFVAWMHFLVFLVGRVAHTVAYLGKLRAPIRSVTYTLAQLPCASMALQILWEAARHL
Procedure, shortened: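 Enzyme source was a microsome fraction from CHO-S cells transfected with human mPGES-1, diluted to 5 μg/mL protein in reduced GSH (12.5 mmol/L KPB), preincubated with compound for 10 min at room temperature with 2% final DMSO. Reaction started with PGH2 and run 45 seconds at room temperature. PGE2 measured by HTRF.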

[1] = Measurement of solubility in Britton-Robinson buffer solution (pH 8.5) containing 0.5 W/V % polysorbate 80; format: physicochemical; settings: Britton-Robinson buffer pH 8.5 containing 0.5 W/V % polysorbate 80, 20° C., 18 hr
Procedure: Experimental Example 5: Measurement of Solubility
(2) Britton-Robinson Buffer Solution (pH 8.5) Containing 0.5 W/V % Polysorbate 80
The test article was weighted in glass microtube, and dispersed in Britton-Robinson buffer solution (pH 8.5, 1.5 mL) containing 0.5 W/V % polysorbate 80 to prepare a suspension. The suspension was shaked at 20° C. for 18 hr, and filtered through a membrane filter (0.45 μm), and the filtrate was used as a sample.
(3) Preparation of Standard Solution and Sample Solution, and Measurement of Solubility
Sample solution was prepared by appropriately diluting sample with a mixture of water/acetonitrile (1:1). Standard solution was prepared by precisely weighting the test article, and then diluting the test article with a mixture of water/acetonitrile (1:1). The standard solution and sample solution were analyzed by liquid chromatography, and the test article content of the sample solution was calculated according to external standard method, based on which the solubility was determined.

A549 cell = assay: Evaluation of PGE2 production inhibitory action using A549 cell (IL-1β stimulated); format: cell-based, human; settings: Homo sapiens
Procedure, shortened: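 A549 cells (human lung cancer) in F-12K with 2% FBS were preincubated with test article for 30 min, then stimulated with IL-1β (1 ng/mL final) for 18 hr at 37 °C; 0.5% DMSO final. Supernatant PGE2 was measured by HTRF against a standard curve; inhibition is relative to vehicle and unstimulated blank wells.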

[2] = A549, A549 cell, recombinant human IL-1β stimulation, read-out: cell PGE2 production inhibitory activity (IC50 value)

| Compound | IC50 (human mPGES-1) [nM] | 0.5% polysorbate 80 solubility (%) at pH 8.5 [1] [%] | IC50 (A549 cell; [2]) [nM] | IC50 (A549 cell; A549, 18 h, IC50 value, A549 cell, recombinant IL-1β 1 ng/mL, 18 hr, PGE2 in supernatant, read-out: cell PGE2 production inhibitory activity) [nM] | inhibition at 0.03 µM (A549 cell; A549 cell, IL-1β stimulation, at the highest concentration given (0.03 μM), read-out: cell PGE2 production inhibitory activity (%), printed in parentheses after the > bound) [%] |
| --- | --- | --- | --- | --- | --- |
| CO[C@](C)(C(=O)NCc1ccc(Cl)c(-c2nc(O)nc(-c3cccc(C(C)(C)C)c3)n2)c1)C(F)(F)F [Example 66, (R)—N-{3-[4-(3-tert-butylphenyl)-6-hydroxy-1,3,5-triazin-2-yl]-4-chlorobenzyl}-3,3,3-trifluoro-2-methoxy-2-methylpropionamide] | 0.7 | 0.136 | 3.8 |  |  |
| CCC[C@H](C)Oc1ccc(-c2nc(O)nc(-c3cc(CNC(=O)C(CC)(CC)CF)ccc3Cl)n2)cn1 [Example 131] | 2.9 | 0.109 | 1.9 |  |  |
| CCCCCCOc1ccc(-c2nc(O)nc(-c3cc(CNC(=O)C(C)(C)OC)ccc3Cl)n2)cn1 [Example 81, N-{4-chloro-3-[4-(6-hexyloxypyridin-3-yl)-6-hydroxy-1,3,5-triazin-2-yl]benzyl}-2-methoxy-2-methylpropionamide] | 2.1 | 0.071 | 5 |  |  |
| CCC[C@H](C)Oc1ccc(-c2nc(O)nc(-c3cc(CNC(=O)C(C)(C)OC)ccc3Cl)n2)cn1 [Example 102] | 1.1 |  | 25 |  |  |
| CCCCCCOc1ccc(-c2nc(O)nc(-c3cc(CNC(=O)C(C)(C)C(F)F)ccc3Cl)n2)cn1 [Example 85] | 4.9 |  | 3.5 |  |  |
| CCC[C@@H](C)Oc1ccc(-c2nc(O)nc(-c3cc(CNC(=O)C(CC)(CC)OC)ccc3Cl)n2)cn1 [Example 79, 2-ethyl-N-(4-chloro-3-{4-hydroxy-6-[6-((R)-1-methylbutoxy)pyridin-3-yl]-1,3,5-triazin-2-yl}benzyl)-2-methoxybutanamide] | 4.6 | 0.157 | 2.6 |  |  |
| CCCc1cc(-c2nc(O)nc(-c3cc(CNC(=O)C(C)(C)C(F)(F)F)ccc3Cl)n2)cnc1OCC [Example 73] | 4.2 |  | > 30 |  | 47 |

Continued, in another order:

| IC50 (human mPGES-1) [nM] | 0.5% polysorbate 80 solubility (%) at pH 8.5 [1] [%] | IC50 (A549 cell; [2]) [nM] | IC50 (A549 cell; A549, 18 h, IC50 value, A549 cell, recombinant IL-1β 1 ng/mL, 18 hr, PGE2 in supernatant, read-out: cell PGE2 production inhibitory activity) [nM] | Compound | inhibition at 0.03 µM (A549 cell; A549 cell, IL-1β stimulation, at the highest concentration given (0.03 μM), read-out: cell PGE2 production inhibitory activity (%), printed in parentheses after the > bound) [%] |
| --- | --- | --- | --- | --- | --- |
| 2.6 | 0.032 | 2.1 |  | CC(C)(C)c1cccc(-c2nc(O)nc(-c3cc(CNC(=O)C4(C(F)(F)F)CCCCC4)ccc3Cl)n2)c1 [Example 107, 1-trifluoromethylcyclohexanecarboxylic acid 3-[4-(3-tert-butylphenyl)-6-hydroxy-1,3,5-triazin-2-yl]-4-chlorobenzylamide] |  |
| 0.7 | 0.057 | 3.4 |  | CC(C)c1cccc(-c2nc(O)nc(-c3cc(CNC(=O)C4(C(F)(F)F)CCCCC4)ccc3Cl)n2)c1 [Example 71, 1-trifluoromethylcyclohexanecarboxylic acid 4-chloro-3-[4-hydroxy-6-(3-isopropylphenyl)-1,3,5-triazin-2-yl]benzylamide] |  |
| 10 |  | 0.8 |  | CCC[C@H](C)Oc1ccc(-c2nc(O)nc(-c3cc(CNC(=O)C4(C(F)(F)F)CCCC4)ccc3Cl)n2)cn1 [Example 140] |  |
| 0.7 |  |  | 14 | CCC1(C(=O)NCc2ccc(Cl)c(-c3nc(O)nc(-c4cccc(C(C)C)c4)n3)c2)CC1 [Example 8] |  |
